biological target: S. aureus (SAU) GyrB ATPase (Staphylococcus aureus, UniProt P0A0K8); assay: S. aureus GyrB ATPase inhibition, ammonium molybdate/malachite green phosphate detection assay; format: biochemical; details: 10 compound concentrations; 500 μM ATP
Method: Compounds were tested for inhibition of GyrB ATPase activity using an ammonium molybdate/malachite green-based phosphate detection assay (Lanzetta, P. A., L. J. Alvarez, P. S. Reinach, and O. A. Candia, 1979, 100: 95-97). Assays were performed in multiwell plates in 100 μl reactions containing: 50 mM Hepes buffer pH 7.5, 75 mM ammonium acetate, 8.0 mM magnesium chloride, 1.0 mM ethylenediaminetetraacetic acid, 5% glycerol, 2 mM 1,4-Dithio-DL-threitol, 400 nM bovine serum albumin, 5 μg/ml sheared salmon sperm DNA, 1.25 nM E. coli GyrA, 1.25 nM S. aureus GyrB, 500 μM ATP, and compound in dimethylsulfoxide. Reactions were quenched with 150 μl of ammonium molybdate/malachite green detection reagent containing 1.2 mM malachite green hydrochloride, 8.5 mM ammonium molybdate tetrahydrate, and 1 M hydrochloric acid. Plates were read in an absorbance plate reader at 650 nm and percent inhibition values were calculated using dimethylsulfoxide (2%)-containing reactions as 0% inhibition and novobiocin-containing (2 μM) reactions as 100% inhibition controls. Compound potency was based on IC50 measurements determined from reactions performed in the presence of 10 different compound concentrations.

Chain of S. aureus (SAU) GyrB ATPase (P0A0K8 whole entry): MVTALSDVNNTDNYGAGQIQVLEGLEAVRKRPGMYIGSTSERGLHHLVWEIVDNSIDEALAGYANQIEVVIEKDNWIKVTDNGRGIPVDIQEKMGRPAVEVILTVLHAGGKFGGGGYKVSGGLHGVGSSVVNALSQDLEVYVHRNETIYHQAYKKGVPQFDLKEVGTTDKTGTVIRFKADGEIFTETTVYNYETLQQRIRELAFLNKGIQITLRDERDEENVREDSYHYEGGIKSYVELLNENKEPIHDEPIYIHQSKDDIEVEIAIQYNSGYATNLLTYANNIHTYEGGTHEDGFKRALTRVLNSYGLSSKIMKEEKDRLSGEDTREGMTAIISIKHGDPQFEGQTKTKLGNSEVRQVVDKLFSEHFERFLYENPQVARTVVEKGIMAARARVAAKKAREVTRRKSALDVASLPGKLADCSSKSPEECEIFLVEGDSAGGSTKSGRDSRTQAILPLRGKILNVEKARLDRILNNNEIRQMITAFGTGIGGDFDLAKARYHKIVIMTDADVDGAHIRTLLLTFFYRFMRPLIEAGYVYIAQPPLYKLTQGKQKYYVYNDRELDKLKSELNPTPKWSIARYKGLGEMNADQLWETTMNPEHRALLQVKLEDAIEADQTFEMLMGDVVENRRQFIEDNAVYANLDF
Chain of S. aureus (SAU) GyrB ATPase (P0AES4 whole entry, further chain): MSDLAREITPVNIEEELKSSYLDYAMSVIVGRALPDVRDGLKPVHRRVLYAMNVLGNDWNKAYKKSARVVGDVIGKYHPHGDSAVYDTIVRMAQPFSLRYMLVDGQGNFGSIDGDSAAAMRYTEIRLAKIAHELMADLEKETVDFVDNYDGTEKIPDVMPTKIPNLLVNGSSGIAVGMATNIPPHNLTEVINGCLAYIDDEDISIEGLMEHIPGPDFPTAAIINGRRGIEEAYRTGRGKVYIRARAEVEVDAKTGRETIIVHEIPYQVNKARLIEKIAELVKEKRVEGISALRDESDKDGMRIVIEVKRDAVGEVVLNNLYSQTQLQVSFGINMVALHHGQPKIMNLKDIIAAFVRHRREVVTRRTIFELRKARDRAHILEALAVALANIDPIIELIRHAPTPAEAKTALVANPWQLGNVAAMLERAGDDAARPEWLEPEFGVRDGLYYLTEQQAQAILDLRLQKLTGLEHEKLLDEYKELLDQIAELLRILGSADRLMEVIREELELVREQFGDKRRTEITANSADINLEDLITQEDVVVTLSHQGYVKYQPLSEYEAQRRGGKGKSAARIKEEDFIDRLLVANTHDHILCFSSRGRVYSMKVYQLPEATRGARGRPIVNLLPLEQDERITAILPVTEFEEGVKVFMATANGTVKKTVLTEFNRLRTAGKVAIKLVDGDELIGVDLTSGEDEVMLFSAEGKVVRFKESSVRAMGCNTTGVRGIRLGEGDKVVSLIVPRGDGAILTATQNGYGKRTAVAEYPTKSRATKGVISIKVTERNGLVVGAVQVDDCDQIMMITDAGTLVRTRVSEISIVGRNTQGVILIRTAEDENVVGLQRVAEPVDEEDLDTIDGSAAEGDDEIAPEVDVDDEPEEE

Compound | IC50
CCNC(=O)Nc1ccc(-c2ncc(C(=O)O)s2)cn1 [Example 17, 2-(6-{[(ethylamino)carbonyl]amino}pyridin-3-yl)-1,3-thiazole-5-carboxylic acid] | 266 nM
CCNC(=O)Nc1ccc(-c2cncc(C(=O)O)c2)cn1 [Example 19, 6′-{[(Ethylamino)carbonyl]amino}-3,3′-bipyridine-5-carboxylic acid] | 846 nM
CCCCNC(=O)c1nc(-c2ccc(NC(=O)NCC)nc2)sc1C(=O)NOC [Example 36, N^4-Butyl-2-(6-{[(ethylamino)carbonyl]amino}pyridin-3-yl)-N^5-methoxy-1,3-thiazole-4,5-dicarboxamide] | 16.8 nM
CCCCNC(=O)c1nc(-c2ccc(NC(=O)NCC)nc2)sc1C(N)=O [Example 39, N^4-Butyl-2-(6-{[(ethylamino)carbonyl]amino}pyridin-3-yl)-1,3-thiazole-4,5-dicarboxamide] | 14 nM

same assay, conditions: compound concentration 5 μM (values marked *)

Compound | inhibition at 5 µM
CCNC(=O)Nc1ncc(-c2ncc(C(=O)OC)s2)cn1 [Example 14, Methyl 2-(2-{[(ethylamino)carbonyl]amino}pyrimidin-5-yl)-1,3-thiazole-5-carboxylate] | 99.5%
CCNC(=O)Nc1cccc(-c2ccc(C(=O)OCC)cc2)n1 [Example 16, Ethyl 4-(6-{[(ethylamino)carbonyl]amino}pyridin-2-yl)benzoate] | 1.28%
CCNC(=O)Nc1ccc(-c2ncc(C(=O)NOC)s2)cn1 [Example 34, 2-(6-{[(Ethylamino)carbonyl]amino}pyridin-3-yl)-N-methoxy-1,3-thiazole-5-carboxamide] | 42.5%
CCNC(=O)Nc1ccc(-c2nc(C(=O)NC3CC3)c(C(=O)NOC)s2)cn1 [Example 35, N^4-Cyclopropyl-2-(6-{[(ethylamino)carbonyl]amino}pyridin-3-yl)-N^5-methoxy-1,3-thiazole-4,5-dicarboxamide] | 96.7%

same assay, conditions: read-out: S. aureus (SAU) GyrB ATPase % Inhibition, compound concentration 12.5 μM

Compound | inhibition at 12.5 µM
CCNC(=O)Nc1ccc(-c2ncc(C(=O)OC)s2)cn1 [Example 1, Methyl 2-(6-{[(ethylamino)carbonyl]amino}pyridin-3-yl)-1,3-thiazole-5-carboxylate] | 3.02%
CCNC(=O)Nc1ccc(-c2nc(C(=O)OCC)cs2)cn1 [Example 2, Ethyl 2-(6-{[(ethylamino)carbonyl]amino}pyridin-3-yl)-1,3-thiazole-4-carboxylate] | 99.1%
CCNC(=O)Nc1ccc(-c2cncc(C(=O)OCC)c2)cn1 [Example 3, Ethyl 6′-{[(ethylamino)carbonyl]amino}-3,3′-bipyridine-5-carboxylate] | 55%
CCNC(=O)Nc1ccc(-c2nc3cccc(C(=O)OCC)c3s2)cn1 [Example 4, Ethyl 2-(6-{[(ethylamino)carbonyl]amino}pyridin-3-yl)-1,3-benzothiazole-7-carboxylate] | 84%
CCNC(=O)Nc1ccc(-c2ccc(C(=O)OC)cn2)cn1 [Example 5, Methyl 6′-{[(ethylamino)carbonyl]amino}-2,3′-bipyridine-5-carboxylate] | 63.7%
CCNC(=O)Nc1ccc(-c2cccc(C(=O)OC)c2)cn1 [Example 6, Methyl 3-(6-{[(ethylamino)carbonyl]amino}pyridin-3-yl)benzoate] | 99.7%
CCNC(=O)Nc1ccc(-c2ccc(C(=O)OC)cc2)cn1 [Example 7, Methyl 4-(6-{[(ethylamino)carbonyl]amino}pyridin-3-yl)benzoate] | 97.4%
CCNC(=O)Nc1ccc(-c2nc(C(=O)NC)c(C(=O)OC(C)C)s2)cn1 [Example 8, Isopropyl 2-(6-{[(ethylamino)carbonyl]amino}pyridin-3-yl)-4-[(methylamino)carbonyl]-1,3-thiazole-5-carboxylate] | 81.5%
CCNC(=O)Nc1ccc(-c2nc(C(=O)NC3CC3)c(C(=O)OCC)s2)cn1 [Example 9, Ethyl 4-[(cyclopropylamino)carbonyl]-2-(6-{[(ethylamino)carbonyl]amino}pyridin-3-yl)-1,3-thiazole-5-carboxylate] | 93.5%
CCCCNC(=O)c1nc(-c2ccc(NC(=O)NCC)nc2)sc1C(=O)OCC [Example 10, Ethyl 4-[(butylamino)carbonyl]-2-(6-{[(ethylamino)carbonyl]amino}pyridin-3-yl)-1,3-thiazole-5-carboxylate] | 92.6%
CCNC(=O)Nc1ccc(-c2ccc3nc(C(=O)OC)cn3c2)cn1 [Example 12, Methyl 6-(6-{[(ethylamino)carbonyl]amino}pyridin-3-yl)imidazo[1,2-a]pyridine-2-carboxylate] | 92.6%
CCNC(=O)Nc1ncc(-c2cccc(C(=O)OC)c2)cn1 [Example 13, Methyl 3-(2-{[(ethylamino)carbonyl]amino}pyrimidin-5-yl)benzoate] | 99%
CCNC(=O)Nc1cccc(-c2cccc(C(=O)OCC)c2)n1 [Example 15, Ethyl 3-(6-{[(ethylamino)carbonyl]amino}pyridin-2-yl)benzoate] | 97.9%
CCNC(=O)Nc1ccc(-c2ncc(C(=O)O)s2)cn1 [Example 17, 2-(6-{[(ethylamino)carbonyl]amino}pyridin-3-yl)-1,3-thiazole-5-carboxylic acid] | 99.1%
CCNC(=O)Nc1ccc(-c2nc(C(=O)O)cs2)cn1 [Example 18, 2-(6-{[(Ethylamino)carbonyl]amino}pyridin-3-yl)-1,3-thiazole-4-carboxylic acid] | 101%
CCNC(=O)Nc1ccc(-c2cncc(C(=O)O)c2)cn1 [Example 19, 6′-{[(Ethylamino)carbonyl]amino}-3,3′-bipyridine-5-carboxylic acid] | 95.1%
CCNC(=O)Nc1ccc(-c2nc3cccc(C(=O)O)c3s2)cn1 [Example 20, 2-(6-{[(Ethylamino)carbonyl]amino}pyridin-3-yl)-1,3-benzothiazole-7-carboxylic acid] | 98.4%
CCNC(=O)Nc1ccc(-c2ccc(C(=O)O)cn2)cn1 [Example 21, 6′-{[(Ethylamino)carbonyl]amino}-2,3′-bipyridine-5-carboxylic acid] | 77.1%

Compound | inhibition at 12.5 µM
CCNC(=O)Nc1ccc(-c2cccc(C(=O)O)c2)cn1 [Example 22, 3-(6-{[(Ethylamino)carbonyl]amino}pyridin-3-yl)benzoic acid] | 99.7%
CCNC(=O)Nc1ccc(-c2ccc(C(=O)O)cc2)cn1 [Example 23, 4-(6-{[(Ethylamino)carbonyl]amino}pyridin-3-yl)benzoic acid] | 92.5%
CCNC(=O)Nc1ccc(-c2nc(C(=O)NC)c(C(=O)O)s2)cn1 [Example 24, 2-(6-{[(Ethylamino)carbonyl]amino}pyridin-3-yl)-4-[(methylamino)carbonyl]-1,3-thiazole-5-carboxylic acid] | 99.1%
CCNC(=O)Nc1ccc(-c2nc(C(=O)NC3CC3)c(C(=O)O)s2)cn1 [Example 25, 4-[(Cyclopropylamino)carbonyl]-2-(6-{[(ethylamino)carbonyl]amino}pyridin-3-yl)-1,3-thiazole-5-carboxylic acid] | 99.5%
CCNC(=O)Nc1ccc(-c2nc(C(C)=O)c(C(=O)O)s2)cn1 [Example 27, 4-Acetyl-2-(6-{[(ethylamino)carbonyl]amino}pyridin-3-yl)-1,3-thiazole-5-carboxylic acid] | 99.1%
CCNC(=O)Nc1ccc(-c2ccc3nc(C(=O)O)cn3c2)cn1 [Example 28, 6-(6-{[(Ethylamino)carbonyl]amino}pyridin-3-yl)imidazo[1,2-a]pyridine-2-carboxylic acid] | 96.8%
CCNC(=O)Nc1ncc(-c2cccc(C(=O)O)c2)cn1 [Example 29, 3-(2-{[(Ethylamino)carbonyl]amino}pyrimidin-5-yl)benzoic acid] | 13.6%
CCNC(=O)Nc1ncc(-c2ncc(C(=O)O)s2)cn1 [Example 30, 2-(2-{[(Ethylamino)carbonyl]amino}pyrimidin-5-yl)-1,3-thiazole-5-carboxylic acid] | 62.9%
CCNC(=O)Nc1cccc(-c2cccc(C(=O)O)c2)n1 [Example 31, 3-(6-{[(Ethylamino)carbonyl]amino}pyridin-2-yl)benzoic acid] | 100%
CCNC(=O)Nc1cccc(-c2ccc(C(=O)O)cc2)n1 [Example 32, 4-(6-{[(Ethylamino)carbonyl]amino}pyridin-2-yl)benzoic acid] | 2.66%
CCNC(=O)Nc1nc(-c2ccc(C(=O)O)cc2)cs1 [Example 33, 4-(2-{[(Ethylamino)carbonyl]amino}-1,3-thiazol-4-yl)benzoic acid] | 38.2%
CCCCNC(=O)c1nc(-c2ccc(NC(=O)NCC)nc2)sc1C(=O)NOC [Example 36, N^4-Butyl-2-(6-{[(ethylamino)carbonyl]amino}pyridin-3-yl)-N^5-methoxy-1,3-thiazole-4,5-dicarboxamide] | 4.84%
CCNC(=O)Nc1ccc(-c2ncc(C(N)=O)s2)cn1 [Example 37, 2-(6-{[(Ethylamino)carbonyl]amino}pyridin-3-yl)-1,3-thiazole-5-carboxamide] | 98.9%
CCNC(=O)Nc1ccc(-c2nc(C(=O)NC3CC3)c(C(N)=O)s2)cn1 [Example 38, N^4-Cyclopropyl-2-(6-{[(ethylamino)carbonyl]amino}pyridin-3-yl)-1,3-thiazole-4,5-dicarboxamide] | 91.8%
CCCCNC(=O)c1nc(-c2ccc(NC(=O)NCC)nc2)sc1C(N)=O [Example 39, N^4-Butyl-2-(6-{[(ethylamino)carbonyl]amino}pyridin-3-yl)-1,3-thiazole-4,5-dicarboxamide] | 99%
CCNC(=O)Nc1ccc(-c2nc3cccc(C(N)=O)c3s2)cn1 [Example 40, 2-(6-{[(Ethylamino)carbonyl]amino}pyridin-3-yl)-1,3-benzothiazole-7-carboxamide] | 83.7%
CCNC(=O)Nc1nc(-c2ccc(C(=O)OC)cc2)cs1 [Example 41, Methyl 4-(2-{[(ethylamino)carbonyl]amino}-1,3-thiazol-4-yl)benzoate] | 26.9%
